Series [1] relates to human leukaemia HL-60 cells. As to the kind of experiment: EC50 on proliferation of HL-60 cells (MTT, 48 h). The series is classed as cell-based. As to conditions: read-out: HL-60 EC50 (nmol). The protocol: (§1) EC50 values of the compounds according to the present invention on the proliferation of human leukaemia HL-60 cells and Bel-7402 cells were determined by using the following method, and the results are shown in Table 2.
Testing method for EC50 values on the human leukaemia HL-60 cells: The human leukaemia HL-60 cells were cultured in vitro. The cells were collected after growth to logarithmic phase, and centrifugated at 1000 rpm for 5 min. The supernatant was discarded and the cells were suspended in an appropriate amount of medium. The cell concentration was adjusted to 1.2×10^4/mL. The cells were seeded into 96-well culture plates in 90 μL per well. For each well of the drug treatment groups, 10 μL of medium-diluted drug was added, whereas for the blank control groups, the same amount of medium was added. Every testing drug was set up for three parallel wells, and also three control wells with only testing drugs (without cell) were set up. Negative control groups were medium containing 0.5% DMSO. After the plate was incubated in an incubator for 48 h, 10 μL of 5 mg/mL MTT was added into each well, and then the plate was placed for 3 h at 37° C. 100 μL of ternary solution (5% SDS, 10 mM HCl, 5% isopropanol) was added into each well, and the plate was kept at 37° C. overnight. The absorbance (OD) was measured at 595 nm/620 nm. The EC50 values were calculated by using Prism Graphpad statistical software.

For a further series, the system named is Bel-7402 cells. The series can be described thus: EC50 on proliferation of Bel7402 cells (SRB, 48 h). The series is classed as cell-based. As to conditions: Homo sapiens, read-out: Bel7402 EC50 (nmol). The protocol: as §1
Testing method for ED50 values on the human Be17402ce11: After the cells were incubated with the addition of the drugs for 48 h, the plates were taken out. 50 μL of pre-cooled 500 g/L trichloroacetic acid was added into each well. The plates were kept in 4° C. refrigerator for 1 h after standing for 5 min, taken out, washed with deionized water for 5 times, and dried in the air. After the plates were completely dried, 100 μL of 0.4% SRB (formulated in 1% acetic acid) was added into each well. Following staining for 20 min, the staining solution was discarded, and the residue was washed with 1% acetic acid for 5 times to remove the uncombined dye. After being dried in the air, the residue was dissolved in 150 μL of 10 mmol/L unbuffered
Tris basic solution (pH=10.5), and oscillated in an oscillator for 5 min. The absorbance of each well at 490 nm was measured with TECAN enzyme mark instrument. The cells in background control plates were treated in the same way for measuring OD490. The EC50 values were calculated by using Prism Graphpad statistical software.

For orientation: EC50 means the midpoint of the concentration-response curve. As usually defined, the melting point is the temperature of the solid-liquid transition. `CC(C)(C)C(=O)Nc1ccncc1CNC(=S)SCCC#N` [Compound 17, 2-cyanoethyl[(4-pivalamidopyridin-3-yl)methyl]dithiocarbamate] yielded a melting point of 122 to 124 °C. For the same compound, the EC50 in series [1] stood at 0.473 nM. Also, the EC50 with Bel-7402 cells amounted to 32.3 nM.
Taken in the same sequence, the figures for `N#CCCSC(=S)NCc1cnc2ccccc2c1` [Compound 18, 2-cyanoethyl(quinolin-3-ylmethyl)dithiocarbamate] were 120 to 122 °C, 5.18 nM and 327 nM.
In the case of `N#CCCSC(=S)NCCc1cccnc1` [Compound 19, 2-cyanoethyl[2-(pyridin-3-yl)ethyl]dithiocarbamate], the EC50 turned out to be 0.796 nM in series [1] and 18.8 nM in the series with Bel-7402 cells.
For `COc1ncccc1CNC(=S)SCCC#N` [Compound 20, 2-cyanoethyl[(2-methoxypyridin-3-yl)methyl]dithiocarbamate], the melting point is 88 to 92 °C. Moreover, in series [1], the EC50 came to 0.8 nM. Besides, in the series on Bel-7402 cells, the EC50 worked out at 7.67 nM.
`COC(=O)c1ccc(CNC(=S)SCCC#N)cn1` [Compound 21, 2-cyanoethyl[(6-methoxycarbonylpyridin-3-yl)methyl]dithiocarbamate] showed a melting point of 106 to 112 °C. In addition, the EC50 in series [1] turned out to be 6.93 nM. For the same compound, the EC50 in the series on Bel-7402 cells was determined as 116 nM.
For the compound `Cc1cc(C)c(CNC(=S)SCCC#N)cn1` [Compound 22, 2-cyanoethyl[(4,6-dimethylpyridin-3-yl)methyl]dithiocarbamate], the melting point lay within 138 to 142 °C. Moreover, in series [1], the EC50 was determined as 1.72 nM. Besides, the EC50 in the series with Bel-7402 cells amounted to 23.4 nM.
In the same order, the values of `COc1cncc(CNC(=S)SCCC#N)c1` [Compound 23, 2-cyanoethyl[(5-methoxypyridin-3-yl)methyl]dithiocarbamate] are 86 to 90 °C, 0.557 nM and 10.3 nM.
Taken in the same sequence, the figures for `N#CCCSC(=S)NCc1cncc(Br)c1` [Compound 24, 2-cyanoethyl[(5-bromopyridin-3-yl)methyl]dithiocarbamate] were 102 to 108 °C, 4.91 nM and 20.5 nM.
Consider `N#CCCSC(=S)NCc1ccc(Oc2ccccc2)nc1` [Compound 27, 2-cyanoethyl[(6-phenoxypyridin-3-yl)methyl]dithiocarbamate], for which the concentration for a half-maximal effect (EC50) in series [1] was found to be 0.548 nM; in the series on Bel-7402 cells it was 48.9 nM.
Regarding `N#CCCSC(=S)NCc1ccncc1` [Compound 28, 2-cyanoethyl(pyridin-4-ylmethyl)dithiocarbamate], the EC50 in series [1] worked out at 56.5 nM; in the series on Bel-7402 cells it was 10.5 nM.
In the same order, the values of `CN(Cc1cccnc1)C(=S)SCCC#N` [Compound 29, 2-cyanoethyl N-methyl-(pyridin-3-ylmethyl)dithiocarbamate] are 134 nM and 2.2 nM.
Taken in the same sequence, the figures for `N#CCCSC(=S)Nc1cccnc1` [Compound 30, 2-cyanoethyl pyridin-3-yldithiocarbamate] were 80.7 nM and 286 nM.
With `CC(NC(=S)SCCC#N)c1cccnc1` (stereo not shown) [Compound 32, 2-cyanoethyl[1-(pyridin-3-yl)ethyl]dithiocarbamate], the values for the EC50 (in series [1]; in the series with Bel-7402 cells) were 3.28 nM and 64.8 nM, respectively.
In the same order, the values of `Cc1c(CNC(=S)SCCC#N)cnn1-c1ccccc1` [Compound 35, 2-cyanoethyl[(5-methyl-1-phenyl-1H-pyrazol-4-yl)methyl]dithiocarbamate] are 6.05 nM and 24.9 nM.
The compound `N#CCCSC(=S)NCc1cncnc1` [Compound 36, 2-cyanoethyl(pyrimidin-5-ylmethyl)dithiocarbamate] gave a melting point of 168 to 171 °C.
Turning to `Cc1cc(CNC(=S)SCCC#N)n(C)n1` [Compound 37, 2-cyanoethyl[(1,3-dimethyl-1H-pyrazol-5-yl)methyl]dithiocarbamate], the EC50 in series [1] is 4.17 nM; with Bel-7402 cells it was 4.26 nM.
`N#CCCSC(=S)NCc1ccc[nH]1` [Compound 46, 2-cyanoethyl[(1H-pyrrol-2-yl)methyl]dithiocarbamate]: the figures for the EC50 (in series [1]; with Bel-7402 cells) were 282 nM and 227 nM, respectively.

Source of the values: US20130136794A1, “HETEROARYL (ALKYL) DITHIOCARBAMATE COMPOUNDS, PREPARATION METHODS AND USES THEREOF” (PEKING UNIVERSITY, priority 2010, published 2013).
